Source: PubChem BioAssay (NCI)
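Values below derive from 48-hour exposures of cells grown in 96-well plates, with endpoints linearly interpolated between the two concentrations bracketing the appropriate inhibition level. GI50 is the concentration that inhibits growth by half. TGI: total growth inhibition.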

What was measured:
Assay in all cases: inhibition of tumour cell growth, NCI panel, 48 h
MDA-MB-468 breast = system: MDA-MB-468 breast
A498 renal = system: A498 renal
ACHN renal = system: ACHN renal
CCRF-CEM leukemia = system: CCRF-CEM leukemia
DU-145 prostate = system: DU-145 prostate
EKVX NSCLC = system: EKVX NSCLC
HCC-2998 colon = system: HCC-2998 colon
HCT-15 colon = system: HCT-15 colon
HL-60(TB) leukemia = system: HL-60(TB) leukemia
HS 578T breast = system: HS 578T breast
IGROV1 ovarian = system: IGROV1 ovarian
K-562 leukemia = system: K-562 leukemia
KM12 colon = system: KM12 colon
LOX IMVI melanoma = system: LOX IMVI melanoma
MALME-3M melanoma = system: MALME-3M melanoma
MCF7 breast = system: MCF7 breast
MDA-MB-231 breast = system: MDA-MB-231 breast
MDA-MB-435 = system: MDA-MB-435
NCI-H23 lung = system: NCI-H23 lung
NCI/ADR-RES ovarian = system: NCI/ADR-RES ovarian
OVCAR-3 ovarian = system: OVCAR-3 ovarian
OVCAR-4 ovarian = system: OVCAR-4 ovarian
OVCAR-5 ovarian = system: OVCAR-5 ovarian
OVCAR-8 ovarian = system: OVCAR-8 ovarian
PC-3 prostate = system: PC-3 prostate
RPMI-8226 leukemia = system: RPMI-8226 leukemia
RXF 393 renal = system: RXF 393 renal
SF-295 CNS = system: SF-295 CNS
SF-539 CNS = system: SF-539 CNS
SK-MEL-28 melanoma = system: SK-MEL-28 melanoma
SK-MEL-5 melanoma = system: SK-MEL-5 melanoma
SN12C renal = system: SN12C renal
SNB-19 CNS = system: SNB-19 CNS
SNB-75 CNS = system: SNB-75 CNS
TK-10 renal = system: TK-10 renal
U251 CNS = system: U251 CNS
UACC-62 melanoma = system: UACC-62 melanoma
UO-31 renal = system: UO-31 renal

Which results are given for `O=C(/C=C\c1ccc(NCc2ccc(C(=O)O)cc2)cc1)CCl`?
GI50 (MDA-MB-468 breast): 7.36 µM; TGI (MDA-MB-468 breast): 23.8 µM

How did the GI50 (MDA-MB-468 breast) turn out when `Nc1ccc2cc3ccc(N)cc3nc2c1` was run?
Its GI50 is 0.531 µM.

What about the TGI (MDA-MB-468 breast) of the same compound?
The TGI was 2.22 µM.

`COC(=O)[C@H]1[C@@H](O)[C@@]2(O)c3c(OC)cc(OC)cc3O[C@@]2(c2ccc(OC)cc2)[C@@H]1c1ccccc1` was tested. Which GI50 (MDA-MB-468 breast) did it give?
The GI50 was 0.00783 µM.

And the TGI (MDA-MB-468 breast)?
Its TGI is 0.116 µM.

How did the GI50 (A498 renal) turn out when `Brc1ccc(-c2n(Cc3ccc4ccccc4c3)c(-c3ccccc3)c(-c3ccccc3)[n+]2Cc2ccc3ccccc3c2)cc1` was run?
The GI50 was 0.338 µM.

And the TGI (A498 renal)?
Its TGI is 1.31 µM.

What about the GI50 (ACHN renal) of the same compound?
The GI50 was 0.363 µM.

What about the TGI (ACHN renal) of the same compound?
The TGI was 1.24 µM.

And the GI50 (CCRF-CEM leukemia)?
Its GI50 is 0.342 µM.

What about the TGI (CCRF-CEM leukemia) of the same compound?
Its TGI is 2.01 µM.

What about the GI50 (DU-145 prostate) of the same compound?
The GI50 was 0.381 µM.

What about the TGI (DU-145 prostate) of the same compound?
The TGI was 1.48 µM.

What about the GI50 (EKVX NSCLC) of the same compound?
The GI50 was 0.197 µM.

And the TGI (EKVX NSCLC)?
Its TGI is 1.03 µM.

What about the GI50 (HCC-2998 colon) of the same compound?
Its GI50 is 0.344 µM.

And the TGI (HCC-2998 colon)?
The TGI was 1.37 µM.

What about the GI50 (HCT-15 colon) of the same compound?
The GI50 was 0.695 µM.

And the TGI (HCT-15 colon)?
The TGI was 2.02 µM.

What about the GI50 (HL-60(TB) leukemia) of the same compound?
The GI50 was 0.154 µM.

What about the TGI (HL-60(TB) leukemia) of the same compound?
Its TGI is 0.533 µM.

And the GI50 (HS 578T breast)?
Its GI50 is 0.439 µM.

What about the TGI (HS 578T breast) of the same compound?
The TGI was 2.18 µM.

What about the GI50 (IGROV1 ovarian) of the same compound?
Its GI50 is 0.301 µM.

What about the TGI (IGROV1 ovarian) of the same compound?
Its TGI is 1.49 µM.

And the GI50 (K-562 leukemia)?
Its GI50 is 0.152 µM.

And the TGI (K-562 leukemia)?
Its TGI is 1.46 µM.

What about the GI50 (KM12 colon) of the same compound?
Its GI50 is 0.276 µM.

And the TGI (KM12 colon)?
Its TGI is 1.13 µM.

And the GI50 (LOX IMVI melanoma)?
The GI50 was 0.272 µM.

And the TGI (LOX IMVI melanoma)?
The TGI was 0.857 µM.

And the GI50 (MALME-3M melanoma)?
Its GI50 is 0.214 µM.

What about the TGI (MALME-3M melanoma) of the same compound?
The TGI was 0.635 µM.

What about the GI50 (MCF7 breast) of the same compound?
The GI50 was 0.221 µM.

What about the TGI (MCF7 breast) of the same compound?
The TGI was 0.816 µM.

What about the GI50 (MDA-MB-231 breast) of the same compound?
Its GI50 is 0.239 µM.

What about the TGI (MDA-MB-231 breast) of the same compound?
The TGI was 0.707 µM.

And the GI50 (MDA-MB-435)?
Its GI50 is 0.295 µM.

What about the TGI (MDA-MB-435) of the same compound?
The TGI was 1.07 µM.

What about the GI50 (MDA-MB-468 breast) of the same compound?
Its GI50 is 0.0687 µM.

And the TGI (MDA-MB-468 breast)?
Its TGI is 0.494 µM.

What about the GI50 (NCI-H23 lung) of the same compound?
The GI50 was 0.244 µM.

What about the TGI (NCI-H23 lung) of the same compound?
Its TGI is 0.817 µM.

And the GI50 (NCI/ADR-RES ovarian)?
The GI50 was 1.44 µM.

What about the TGI (NCI/ADR-RES ovarian) of the same compound?
The TGI was 2.97 µM.

What about the GI50 (OVCAR-3 ovarian) of the same compound?
Its GI50 is 0.253 µM.

What about the TGI (OVCAR-3 ovarian) of the same compound?
The TGI was 2.79 µM.

What about the GI50 (OVCAR-4 ovarian) of the same compound?
The GI50 was 0.3 µM.

And the TGI (OVCAR-4 ovarian)?
The TGI was 1.4 µM.

What about the GI50 (OVCAR-5 ovarian) of the same compound?
The GI50 was 0.305 µM.

What about the TGI (OVCAR-5 ovarian) of the same compound?
Its TGI is 1.24 µM.

What about the GI50 (OVCAR-8 ovarian) of the same compound?
The GI50 was 0.302 µM.

And the TGI (OVCAR-8 ovarian)?
The TGI was 1.8 µM.

And the GI50 (PC-3 prostate)?
Its GI50 is 0.332 µM.

What about the TGI (PC-3 prostate) of the same compound?
The TGI was 1.5 µM.

What about the GI50 (RPMI-8226 leukemia) of the same compound?
Its GI50 is 0.124 µM.

What about the TGI (RPMI-8226 leukemia) of the same compound?
Its TGI is 0.744 µM.

What about the GI50 (RXF 393 renal) of the same compound?
The GI50 was 0.212 µM.

And the TGI (RXF 393 renal)?
Its TGI is 0.798 µM.

And the GI50 (SF-295 CNS)?
The GI50 was 0.22 µM.

What about the TGI (SF-295 CNS) of the same compound?
The TGI was 0.682 µM.

And the GI50 (SF-539 CNS)?
Its GI50 is 0.338 µM.

And the TGI (SF-539 CNS)?
Its TGI is 1.25 µM.

What about the GI50 (SK-MEL-28 melanoma) of the same compound?
Its GI50 is 0.428 µM.

And the TGI (SK-MEL-28 melanoma)?
Its TGI is 1.58 µM.

What about the GI50 (SK-MEL-5 melanoma) of the same compound?
Its GI50 is 0.169 µM.

And the TGI (SK-MEL-5 melanoma)?
Its TGI is 0.316 µM.

And the GI50 (SN12C renal)?
The GI50 was 0.256 µM.

What about the TGI (SN12C renal) of the same compound?
The TGI was 1.01 µM.

And the GI50 (SNB-19 CNS)?
The GI50 was 0.314 µM.

And the TGI (SNB-19 CNS)?
Its TGI is 1.25 µM.

What about the GI50 (SNB-75 CNS) of the same compound?
Its GI50 is 0.189 µM.

And the TGI (SNB-75 CNS)?
The TGI was 1.02 µM.

What about the GI50 (TK-10 renal) of the same compound?
Its GI50 is 0.296 µM.

And the TGI (TK-10 renal)?
Its TGI is 1.19 µM.

And the GI50 (U251 CNS)?
Its GI50 is 0.248 µM.

And the TGI (U251 CNS)?
The TGI was 2.6 µM.

And the GI50 (UACC-62 melanoma)?
Its GI50 is 0.285 µM.

What about the TGI (UACC-62 melanoma) of the same compound?
The TGI was 1.2 µM.

And the GI50 (UO-31 renal)?
The GI50 was 1.13 µM.

What about the TGI (UO-31 renal) of the same compound?
Its TGI is 2.55 µM.
